One assay relates to Sprague Dawley rats. As to the kind of experiment: Social Recognition Task (subchronic study). It counts as in vivo, rat. The settings on record: p.o.; for Minimum effective dose: subchronic 7 days, Sprague Dawley rats. The source says:
Briefly, Sprague Dawley rats were acclimatized to the CNS-Laboratory-animal holding room for at least 7 days prior to the randomization, under standard housing conditions. The animals were handled and familiarized with the injection procedures during this period. Two days before the experimentation (social interaction trial, SIT1), the rats were randomized in different treatment-groups based on their body weights namely, vehicle (Tween 80 (1%, v/v), Vitamin E TPGS (Speziol®, 10%, v/v) q.s. 100% v/v in milli-Q water; 2 ml/kg, p.o.), scopolamine (0.5 mg/kg, i.p.) and test compound (Compound 1:ranging from 0.05 to 0.50 mg/kg, p.o.).
Seven days before experiment, the vehicle or the test compound was administered to the adult rats once-daily and 1 h before the SIT1 on day-8 in respective treatment-groups. Scopolamine or vehicle was administered 20 min prior to the first social interaction (acquisition, SIT1) trial; scopolamine administration served to induced amnesia. After this treatment, the animals were subjected to the first social interaction (acquisition, SIT1) trial, which was followed by a second (retention, SIT2) trial, 30 min later.
In the case of time-delay induced amnesia paradigm, the vehicle or the test compounds (Compound 1) were administered to the adult rats once-daily for 7 days and 1 h before the SIT1 on day-8, in respective treatment-groups. After this treatment, the animals were subjected to a second (retention, SIT2) trial on day-9. The 24 h inter-trial interval served to induce spontaneous decay of memory and resultant amnesia.
Both the trials (acquisition and retention) were of 5 min duration. The social recognition task was performed in the home-cages made up of transparent polycarbonate. Juvenile rats of 3-4 weeks of age served as subjects for exploration to the adult rats. Adult rats were habituated to the home-cage (without juvenile) for 5 min just before SIT1.
Subject exploration (towards juvenile) was measured as the ‘time spent by the adult animal’ exploring the juvenile rat socially viz. sniffing, following, climbing over or going under or aggression. In order to avoid the confounding olfactory trails, the home-cage was individualized for each adult rat. During the second trial (retention trial, SIT2), adult rats were re-exposed to the same juvenile rat previously introduced earlier in the SIT1. The time of exploration in seconds was recorded for both sessions (SIT1 and SIT2).
Mean and standard error of mean (S.E.M) were determined for the exploration time of each social recognition trial (SIT1, SIT2) and recognition index across the treatment-groups. […]
The recognition index (RI) was calculated using the formula: Recognition index equals(time spent investigating juvenile rat in SIT2/time spent investigating juvenile rat in SIT1). […]

For a further assay, the system named is Wistar rats. As to the kind of experiment: Novel Object Recognition Task (subchronic study). It counts as in vivo, rat. Particulars: p.o.; for Minimum effective dose: subchronic 7 days, Wistar rats. The source says:
Briefly, Wistar rats were acclimatized to the CNS-Laboratory-animal holding room for at least 7 days prior to the randomization, under standard housing conditions. Animals were handled and familiarized with the injection procedures during this period. Two days before the experimentation (acquisition trial, T1), rats were randomized in different treatment-groups based on their body weights namely, vehicle (Tween 80 (1%, v/v), Vitamin E TPGS (Speziol®, 10%, v/v) q.s. 100% v/v in milli-Q water, 2 ml/kg, p.o.), scopolamine (1 mg/kg, i.p.) and test compounds (Compound 1: ranging from 0.005 to 0.05 mg/kg, p.o. and compound A:ranging from 0.05 to 0.5 mg/kg, p.o.)
Vehicle or test compounds (Compounds 1 and A) were administered in a single-dose, subchronically for 7 days, and 1 h before the acquisition trial on day-8 in respective treatment-groups. In order to induce cognitive deficits, scopolamine (1 mg/kg) was injected 25 min before the acquisition trial (T1). Acquisition (T1) and Retention (T2) trials were separated by an intertrial interval of 30 min. In the first trial (acquisition trial, T1), the rats were subjected to arena with two identical objects for a period of 5 min and exploration time towards individual object was measured. In retention trial, one of the identical object was replaced with novel object.
In the time-delay induced amnesia paradigm, vehicle or test compounds (Compounds 1 and A) were administered once-daily for 7 days, and 1 h before the acquisition trial (T1) on day-8 in the respective treatment-groups. After this, a second, retention (T2) trial, was conducted on day-9. A 24 h inter-trial interval served to induce spontaneous decay of memory and resultant amnesia in this paradigm.
In the second trial (retention trial, T2), one of the objects presented in T1 was replaced by a novel object, and the rats were left to explore in the arena for 5 min. The time spent exploring the familiar (F) and the novel object (N) was recorded separately. All the animals underwent habituation session of 10 min duration 24 h prior to acquisition trial to get them acclimatized to the test arena. Both the trials (acquisition and retention) were of 5 min duration. The NOR task was performed in the square-open-field boxes (40 cm long×40 cm wide×40 cm high) made up of non-reflective PVC sheets with black surrounding walls and light gray floor. Colored plastic and glass bottles of different size, shapes and texture, served as object of exploration.
Object exploration was measured as the ‘time spent by the animal’ directing its nose at a distance 2 cm to the object or touching and exploring it. Time spent climbing on the object was not accounted as object exploration. In order to avoid the presence of olfactory trails, the test boxes and objects were always thoroughly cleaned between trials of individual animals.
Mean and standard error of the mean (S.E.M.) was calculated for the exploration time of each identical objects in T1, novel and familiar objects in T2 and discrimination index across the treatment groups. Exploration time within groups was compared with Student's paired t-test. Discrimination index was compared between groups by One-way ANOVA with Dunnett's post hoc test in comparison to the scopolamine-treated group or vehicle-treated group as per the paradigm. Discrimination index was compared between groups by unpaired t-test in comparison to the vehicle-treated group. p<0.05 was considered as significant. All statistical comparisons were performed using GraphPad Prism version 5.00 for Windows, GraphPad Software, San Diego Calif. USA.
The discrimination index (DI) was calculated based on explorations in T2 trial, using the formula.
Discrimination Index equals (time spent investigating novel object−time spent investigating familiar object)/(time spent investigating novel object+time spent investigating familiar object). […] All the experimental recordings were carried out by manual observation of animals by trained scientists. […]

Where [1] appears, read: Time-delay induced amnesia (24 h).

Turning to `Cc1c(-c2ccc(S(N)(=O)=O)cc2)c(C(=O)CC2CC2)n(C)c1-c1ccc(Cl)cc1` [Compound 1, 4-(5-(4-chlorophenyl)-2-(2-cyclopropylacetyl)-1,4-dimethyl-1H-pyrrol-3-yl)benzenesulfonamide], the “recognition index (RI) as compared to vehicle-treated group” value in the assay with Sprague Dawley rats (24 h time delay-induced amnesia, subchronic (7 day) 0.05 mg/Kg, FIG. 2A) is listed as “significantly decreased”. Moreover, the Minimum effective dose in the assay with Sprague Dawley rats (Scopolamine induced amnesia) was 0.015 mg/kg; in the assay on Sprague Dawley rats (setting [1]) it was 0.05 mg/kg; in the assay on Wistar rats (Scopolamine induced amnesia) it was 0.015 mg/kg; in the assay with Wistar rats (setting [1]), 0.015 mg/kg. Also, the “recognition index (RI) as compared to scopolamine treated group” value in the assay with Sprague Dawley rats (Scopolamine-induced amnesia, subchronic (7 day) 0.05 mg/Kg, FIG. 2B) was “significantly decreased”. Further, the “discrimination index as compared to vehicle-treated group” value in the assay on Wistar rats (24 h time delay-induced amnesia, subchronic (7 day) 0.05 mg/Kg, FIG. 1A) is recorded as “significantly increased”. In addition, in the assay with Wistar rats (Scopolamine-induced amnesia, subchronic (7 day) 0.05 mg/Kg, FIG. 1B), the “discrimination index as compared to scopolamine treated group” value is reported as “significantly increased”.

In the case of `CCC(=O)c1c(-c2ccc(S(N)(=O)=O)cc2)c(C)c(-c2ccc(Cl)cc2)n1C` [Compound A, 4-(5-(4-chlorophenyl)-1,4-dimethyl-2-propionyl-1H-pyrrol-3-yl)benzenesulfonamide, reference compound], the Minimum effective dose is greater than 0.5 mg/kg in the assay with Wistar rats (Scopolamine induced amnesia) and 0.15 mg/kg in the assay with Wistar rats (setting [1]).
